{
  "source": "patent US9611272B2",
  "about": "“Polymorphic forms of icotinib and uses thereof” (BETTA PHARMACEUTICALS CO., LTD, priority 2013, dated 2017)",
  "experiment": "Pharmacokinetic study of Icotinib hydrochloride and Polymorph Form II of Icotinib, oral suspension, plasma by HPLC",
  "format": "in vivo",
  "conditions": "fasted male SD rats, oral suspension in sodium carboxymethyl cellulose, dose equivalent to 50 mg/kg Icotinib",
  "text": "Pharmacokinetic Study of Icotinib Hydrochloride and the Polymorph Form II of Icotinib\nDrugs and reagents: the Icotinib hydrochloride used in this study was of Crystalline Form I disclosed by the WO2010/003313. Polymorph Form II of Icotinib and Icotinib hydrochloride were ground to fine particles. The material content (purity) was not less than 99.0%. Sodium carboxymethyl cellulose was medical supply graded.\nExperimental animals: SD rats were divided to the Icotinib hydrochloride group and a Polymorph Form II group.\nPharmaceutical preparation: the amount of each compound was weighed and then sodium carboxymethyl cellulose was added to result in the test compound's concentration of 0.5%. The solid mixture was then added to prepare a suspension thereof at a final concentration of […] in water.\nAdministration and sample collection: each suspension was administered orally to fasted SD rats at a dose equivalent to 50 mg/kg Icotinib in a dose volume of 5 ml/kg. 0.4 ml of blood was collected in EDTA-K pre anticoagulant tubes at time intervals of 0.5, 1, 1.5, 2, 4, 6, 8 and 24 hours after the administration of the test compound, centrifuged at 3000 rpm for 10 minutes, and 120 μl plasma was collected and kept in cold storage.\nSamples were analyzed by high performance liquid chromatography. The chromatographic conditions utilized C18-silane bonded silica as stationary phase, 0.02 mol/L of sodium dihydrogen phosphate in acetonitrile (40:60, using sodium hydroxide solution to adjust pH to 5.0) as the mobile phase and a detection wavelength of 334 nm.",
  "note": "Structures can show the parent of a compound that is named as a salt. Where two headings read alike, the source gives them in different places.",
  "data": [
    {"smiles": "C#Cc1cccc(Nc2ncnc3cc4c(cc23)OCCOCCOCCO4)c1", "note": "[Icotinib hydrochloride]", "values": [
      {"measurement": "Tmax", "setting": "hydrochloride", "value": "1.3 ± 1.1", "unit": "h"},
      {"measurement": "AUC(0-inf)", "setting": "male, SD, rat, po, 50 mg/kg", "value": "39800 ± 28500", "unit": "ng·h/mL"},
      {"measurement": "half-life", "setting": "male, SD, rat, po, 50 mg/kg", "value": "3.1 ± 1.4", "unit": "h"},
      {"measurement": "AUC(0-t)", "setting": "male, SD, rat, po, 50 mg/kg, read-out: AUC(0-24)", "value": "39200 ± 27600", "unit": "ng·h/mL"},
      {"measurement": "Cmax", "setting": "male, SD, rat, po, 50 mg/kg, read-out: Cmax", "value": "4900 ± 2600", "unit": "ng/mL"}
    ]},
    {"smiles": "C#Cc1cccc(Nc2ncnc3cc4c(cc23)OCCOCCOCCO4)c1", "note": "[Polymorph Form II of Icotinib, Icotinib]", "values": [
      {"measurement": "AUC(0-24)", "value": "62400 ± 30100", "unit": "ng·h/mL"},
      {"measurement": "AUC(0-∞)", "value": "63000 ± 30000", "unit": "ng·h/mL"},
      {"measurement": "Cmax", "value": "5800 ± 2600", "unit": "ng/mL"},
      {"measurement": "T1/2", "value": "3.5 ± 0.6", "unit": "h"},
      {"measurement": "Tmax", "value": "4.5 ± 2.6", "unit": "h"}
    ]}
  ]
}
